Results reported in US10501479B2, “Benzenesulfonyl-asymmetric ureas and medical uses thereof” (HELSINN HEALTHCARE SA, priority 2016, dated 2019).

Tests used:
Type in all cases: cell-based
[1] = target: T1, GHSR-1a (HEK293/GHSR1a cell line) (Homo sapiens, UniProt Q92847); experiment: Ghrelin antagonist potency (IC50) with calcium FLIPR assay, ghrelin 10 nM; settings: HEK293/GHSR1a, ghrelin 10 nM, read-out: Activity IC50 (ghrelin antagonist potency)
T1 construct: expressed in transfected cells; host or cells: HEK293/GHSR1a cell line
T1 sequence (Q92847 whole entry): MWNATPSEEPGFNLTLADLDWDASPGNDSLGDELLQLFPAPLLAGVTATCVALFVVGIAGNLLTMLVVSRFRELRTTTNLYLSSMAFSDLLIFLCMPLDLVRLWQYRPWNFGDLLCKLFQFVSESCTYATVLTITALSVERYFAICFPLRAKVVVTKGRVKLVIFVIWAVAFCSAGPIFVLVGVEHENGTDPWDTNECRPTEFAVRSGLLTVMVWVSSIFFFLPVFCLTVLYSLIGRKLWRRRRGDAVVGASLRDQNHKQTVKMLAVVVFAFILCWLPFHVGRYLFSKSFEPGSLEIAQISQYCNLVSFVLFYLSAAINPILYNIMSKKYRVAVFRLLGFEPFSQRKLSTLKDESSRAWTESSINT
Summary of the method: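 The cells were plated a day ahead and loaded with a calcium-sensitive dye. Test compound was then added and incubated 15 min, followed by ghrelin. Antagonist potency was calculated from inhibition of the response to 10 nM ghrelin, and agonist potency from the calcium rise caused by compound alone.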

[2] = target: T2, recombinant human ghrelin receptor (HEK293/GRLN) (Homo sapiens, UniProt Q92847); experiment: Ghrelin inverse agonist potency (EC50) with IP-1 (IP-One HTRF) assay; settings: IP-1 assay, HEK293/GRLN; read-out: Activity EC50 (ghrelin inverse agonist potency)
T2 construct: expressed in transfected cells
T2 sequence (Q92847 whole entry): as above
Summary of the method: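 IP-1 accumulation was measured by HTRF (IP1-d2/Tb-cryptate, 620/665 nm read after 1 hour at room temperature) following 1 hour of compound treatment at 37° C. Cells were HEK293 stably expressing human ghrelin receptor, plated a day earlier on Matrigel. Inverse agonist potency was reported as EC50.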

[3] = target: T1, GHSR-1a (HEK293/GHSR1a cell line); experiment: Ghrelin agonist potency (EC50) with calcium FLIPR assay; settings: HEK293/GHSR1a, read-out: Activity EC50/EMax: EC50 (ghrelin agonist potency)
Method: Evaluation of Ghrelin Agonist (EC50) and Antagonist Potency (IC50) with Calcium FLIPR Assay:
The intracellular calcium assay was carried out in a 384-well format FLIPR™ (Molecular Device) HEK293/GHSR1a cell line. Cells were seeded 24 hr prior to the experiments at an optimal density per well. Preincubation with selected calcium dye lasted for 30-60 min at room temperature or 37° C. Test compounds, dissolved in DMSO, were added at the appropriate time and incubated for 15 min followed by the addition of ghrelin with FlexStation or FLIPR. Relative fluorescence was monitored by the FLIPR™ Molecular Device. EC50 and IC50 values were estimated from dose-response data using GraphPad Prism software. To check for GHSR-1a agonism, the compound was added at t=20 sec. and the calcium response was followed for 2 minutes. To check for GHSR-1a antagonism, the compound and Ghrelin (10 nM) were added to the cells at t=20 sec. and the calcium response was measured for 2 minutes. The potency of the antagonist was calculated by its ability to reduce the ghrelin response. Dose-response curves were made for relevant antagonists.

SMILES	IC50 [1]	EC50 [2]	EC50 [3]
C[C@H](NC(=O)Nc1ccc(S(=O)(=O)CC2CCNCC2)cc1)c1ccccc1 [H1303, (S)-1-(1-phenylethyl)-3-(4-((piperidin-4-ylmethyl)sulfonyl)phenyl)urea]	> 30000 nM	> 30000 nM	> 30000 nM
CCN(CC)Cc1ccc(CS(=O)(=O)c2ccc(NC(=O)NC(C)c3ccccc3)cc2)cc1 (stereo not drawn) [H1304, 1-(4-((4-((diethylamino)methyl)benzyl)sulfonyl)phenyl)-3-(1-phenylethyl)urea]	145 nM	182 nM	> 30000 nM
CC(NC(=O)Nc1ccc(S(=O)(=O)Cc2ccc3c(c2)CN(C)C3)cc1)c1ccccn1 (stereo not drawn) [H1307, 1-(4-(((2-methylisoindolin-yl)methyl)sulfonyl)phenyl)-3-(1-(pyridin-2-yl)ethyl)urea]	2300 nM	935 nM	> 30000 nM
CC(NC(=O)Nc1ccc(S(=O)(=O)Cc2ccc3c(c2)CN(C)C3)cc1)c1cncnc1 (stereo not drawn) [H1309, 1-(4-(((2-methylisoindolin-5-yl)methyl)sulfonyl)phenyl)-3-(1-(pyrimidin-5-yl)ethyl)urea]	4500 nM	1840 nM	> 30000 nM
CC(=O)Oc1ccc(C(C)NC(=O)Nc2ccc(S(=O)(=O)Cc3ccc4c(c3)CNC4)cc2)cc1 (stereo not drawn) [H1310, 4-(1-(3-(4-((isoindolin-5-ylmethyl)sulfonyl)phenyl)ureido)ethyl)phenylacetate]	262 nM	184 nM	> 30000 nM
CC(NC(=O)Nc1ccc(S(=O)(=O)Cc2ccc3c(c2)CNC3)cc1F)c1ccccc1 (stereo not drawn) [H1316, 1-(2-fluoro-4-((isoindolin-5-ylmethyl)sulfonyl)phenyl)-3-(1-phenylethyl)urea]	30.9 nM	11.6 nM	> 30000 nM
CC(NC(=O)Nc1ccc(S(=O)(=O)Cc2cc3c(s2)CNC3)cc1)c1ccccc1 (stereo not drawn) [H1320, 1-(4-(((5,6-dihydro-4H-thieno[2,3-c]pyrrol-2-yl)methyl)sulfonyl)phenyl)-3-(1-phenylethyl)urea]	58.4 nM	43.3 nM	> 30000 nM
O=C(Nc1ccc(S(=O)(=O)Cc2ccc3c(c2)CNC3)cc1)NC1COc2ccccc21 (stereo not drawn) [H1330, 1-(2,3-dihydrobenzofuran-3-yl)-3-(4-((isoindolin-5-ylmethyl)sulfonyl)phenyl)urea]	147 nM	142 nM	> 30000 nM
CN1Cc2ccc(CS(=O)(=O)c3ccc(NC(=O)NC4COc5ccccc54)cc3)cc2C1 (stereo not drawn) [H1331, 1-(2,3-dihydrobenzofuran-3-yl)-3-(4-(((2-methylisoindolin-5-yl)methyl)sulfonyl)phenyl)urea]	213 nM	130 nM	> 30000 nM
C[C@@H](NC(=O)Nc1ccc(S(=O)(=O)Cc2ccc(C3CCCN3)cc2)cc1)c1ccccc1 (stereo partly drawn) [H1332, 1-((R)-1-phenylethyl)-3-(4-((4-(pyrrolidin-2-yl)benzyl)sulfonyl)phenyl)urea]	73.2 nM	42.1 nM	> 30000 nM
CN1Cc2ccc(CS(=O)(=O)c3ccc(NC(=O)N[C@H]4CCCc5ccccc54)cc3)cc2C1 [H1335, (S)-1-(4-(((2-methylisoindolin-5-yl)methyl)sulfonyl)phenyl)-3-(1,2,3,4-tetrahydronaphthalen-1-yl)urea]	133 nM	69.9 nM	> 30000 nM
CN1Cc2ccc(CS(=O)(=O)c3ccc(NC(=O)N[C@@H]4CCCc5ccccc54)cc3)cc2C1 [H1336, (R)-1-(4-(((2-methylisoindolin-5-yl)methyl)sulfonyl)phenyl)-3-(1,2,3,4-tetrahydronaphthalen-1-yl)urea]	381 nM	263 nM	> 30000 nM
CC(NC(=O)Nc1ccc(S(=O)(=O)Cc2ccc3c(c2)CN(CC#N)C3)cc1)c1ccccc1 (stereo not drawn) [H1339, 1-(4-(((2-(cyanomethyl)isoindolin-5-yl)methyl)sulfonyl)phenyl)-3-(1-phenylethyl)urea]	309 nM	176 nM	> 30000 nM
CC(NC(=O)Nc1ccc(S(=O)(=O)Cc2ccc3c(c2)CN(CC2CCCO2)C3)cc1)c1ccccc1 (stereo not drawn) [H1341, 1-(1-phenylethyl)-3-(4-(((2-((tetrahydrofuran-2-yl)methyl)isoindolin-5-yl)methyl)sulfonyl)phenyl)urea]	69.7 nM	20.9 nM	> 30000 nM
C[C@@H](NC(=O)Nc1ccc(S(=O)(=O)Cc2cc3c(s2)CN(C)C3)cc1)c1ccccc1 [H1348, (R)-1-(4-(((5-methyl-5,6-dihydro-4H-thieno[2,3-c]pyrrol-2-yl)methyl)sulfonyl)phenyl)-3-(1-phenylethyl)urea]	65 nM	19.9 nM	> 30000 nM
CN1CCc2cc(CS(=O)(=O)c3ccc(NC(=O)NCc4cccc(Cl)c4Cl)cc3)ccc2C1 [H1349, 1-(2,3-dichlorobenzyl)-3-(4-(((2-methyl-1,2,3,4-tetrahydroisoquinolin-6-yl)methyl)sulfonyl)phenyl)urea]	15.3 nM	29 nM	> 30000 nM
CC(NC(=O)Nc1ccc(S(=O)(=O)Cc2ccc3c(c2)C[N+](C)([O-])C3)cc1)c1ccccc1 (stereo not drawn) [H1350, 2-methyl-5-(((4-(3-(1-phenylethyl)ureido)phenyl)sulfonyl)methyl)isoindoline 2-oxide]	18200 nM	7460 nM	> 30000 nM
C[C@@H](NC(=O)Nc1ccc(S(=O)(=O)Cc2csc3c2CN(C)C3)cc1)c1ccccc1 [H1351, (R)-1-(4-(((5-methyl-5,6-dihydro-4H-thieno[2,3-c]pyrrol-3-yl)methyl)sulfonyl)phenyl)-3-(1-phenylethyl)urea]	3450 nM	6960 nM	> 30000 nM
C[C@H](NC(=O)Nc1ccc(S(=O)(=O)Nc2ccc3c(c2)CCN(C)C3)cc1)c1cccc(Cl)c1Cl [H1352, (S)-4-(3-(1-(2,3-dichlorophenyl)ethyl)ureido)-N-(2-methyl-1,2,3,4-tetrahydroisoquinolin-6-yl)benzenesulfonamide]	4.6 nM	7.7 nM	> 30000 nM
CC(=O)N1CC(NC(=O)Nc2ccc(S(=O)(=O)Cc3ccc4c(c3)CNC4)cc2)c2ccccc21 (stereo not drawn) [H1353, 1-(1-acetylindolin-3-yl)-3-(4-((isoindolin-5-ylmethyl)sulfonyl)phenyl)urea]	5100 nM	8230 nM	> 30000 nM
CC(=O)N1CC(NC(=O)Nc2ccc(S(=O)(=O)Cc3ccc4c(c3)CN(C)C4)cc2)c2ccccc21 (stereo not drawn) [H1354, 1-(1-acetylindolin-3-yl)-3-(4-(((2-methylisoindolin-5-yl)methyl)sulfonyl)phenyl)urea]	8900 nM	8610 nM	> 30000 nM
C[C@@H](NC(=O)Nc1ccc(S(=O)(=O)Cc2ccc3c(c2)CN(C)C3(C)C)cc1)c1ccccc1 [H1357, (R)-1-(1-phenylethyl)-3-(4-(((1,1,2-trimethylisoindolin-5-yl)methyl)sulfonyl)phenyl)urea]	57 nM	36 nM	> 30000 nM
CN1Cc2ccc(CS(=O)(=O)c3ccc(NC(=O)NC4CNc5ccccc54)cc3)cc2C1 (stereo not drawn) [H1358, 1-(indolin-3-yl)-3-(4-(((2-methylisoindolin-5-yl)methyl)sulfonyl)phenyl)urea]	1880 nM	1820 nM	> 30000 nM
CC(NC(=O)Nc1ccc(S(=O)(=O)Cc2cc3c(cc2F)CN(C)CC3)cc1)c1cccc(Cl)c1Cl (stereo not drawn) [H1366, 1-(1-(2,3-dichlorophenyl)ethyl)-3-(4-(((7-fluoro-2-methyl-1,2,3,4-tetrahydroisoquinolin-6-yl)methyl)sulfonyl)phenyl)urea]	21.5 nM	2.5 nM	> 30000 nM
CC(NC(=O)Nc1ccc(S(=O)(=O)Cc2ccc3c(c2F)CCN(C)C3)cc1)c1cccc(Cl)c1Cl (stereo not drawn) [H1367, 1-(1-(2,3-dichlorophenyl)ethyl)-3-(4-(((5-fluoro-2-methyl-1,2,3,4-tetrahydroisoquinolin-6-yl)methyl)sulfonyl)phenyl)urea]	21.2 nM	3.3 nM	> 30000 nM
COc1cc2c(cc1CS(=O)(=O)c1ccc(NC(=O)NC(C)c3cccc(Cl)c3Cl)cc1)CCN(C)C2 (stereo not drawn) [H1368, 1-(1-(2,3-dichlorophenyl)ethyl)-3-(4-(((7-methoxy-2-methyl-1,2,3,4-tetrahydroisoquinolin-6-yl)methyl)sulfonyl)phenyl)urea]	20.3 nM	2.8 nM	> 30000 nM
COc1c(CS(=O)(=O)c2ccc(NC(=O)NC(C)c3cccc(Cl)c3Cl)cc2)ccc2c1CCN(C)C2 (stereo not drawn) [H1369, 1-(1-(2,3-dichlorophenyl)ethyl)-3-(4-(((5-methoxy-2-methyl-1,2,3,4-tetrahydroisoquinolin-6-yl)methyl)sulfonyl)phenyl)urea]	3.66 nM	1.1 nM	> 30000 nM
